{"source": "patent US8431581B2", "about": "“Imidazopyrimidines and uses thereof” (priority 2008, dated 2013)", "system": "HIV-1 reporter virus, integrase Q148H/G140S (QHGS)", "assay": "Luciferase reporter virus infectivity assay, QHGS mutant", "format": "cell-based", "conditions": "read-out: EC50 against the QHGS mutant", "from_the_text": "Infectivity assays using reporter viruses derived from lentiviral vectors capable of a single round of infection were used to determine the activity (EC50) of compounds. The DNA used to generate viruses for infection was the full-length HIV-1 genome which had been envelope-deleted. In addition, a reporter gene (the firefly luciferase gene from Photinus pyralis) was cloned into the nef region of the HIV backbone for ease of assay readout. […]. Culture supernatants containing VSV-G pseudotyped virions were harvested 64 h post transfection, clarified by centrifugation to remove cell debris, and frozen at −70° C. until use.\nHIV integrase was mutated within a shuttle vector (pGEM) containing the majority of the HIV-1 gag and pol sequence using site-directed mutagenesis to generate sequences that are known to confer resistance to published integrase inhibitors. These include but are not limited to mutations such as Q148H/G140S (in tables 2 and 3 # QHGS), N155H/E92Q (in table 2 # NHEQ), F121Y/T124K (in table 2 FYTK), Y143R (in table 2 # Y143R) and the triple mutant Q148K/G140A/E138A. (in table 2 # QKGAEA). The mutated integrase coding region within the shuttle vector was sequence verified, and then exchanged for the wild-type (WT) coding sequence in the reporter virus DNA backbone.\n293T cells were plated out at 12000 cells per well in CellView 96-well cell culture plates (Invitrogen) 16 h prior to compound addition. Compounds were preincubated with cells for 4 h at 37° C. prior to the addition of virus sufficient to generate approximately 10000 Luciferase light units (as measured by the Victor Wallace luminometer) upon assaying using the Bright-Glo™ reagent (Promega) according to the manufacturer's instructions at 48 h post infection.", "key": {"[1]": {"conditions": "Human immunodeficiency virus 1, HEK-293T"}}, "note": "Like-named read-outs stand apart in the source and are kept apart here."}
{"compound": "6-Benzyloxy-1-[2-(2,6-dimethyl-morpholin-4-yl)-2-oxo-ethyl]-7-[5-(4-fluoro-2-methylsulfanyl-benzyl)-thiazol-2-yl]-1H-imidazo[1,2-a]pyrimidin-5-one [Example 168]", "values": [{"measurement": "EC50", "setting": "293T cells, Q148H/G140S reporter virus, Table 3", "result": "500 to 1000", "unit": "nM"}]}
{"compound": "COC(=O)c1cc(F)ccc1Cc1cnc(-c2nc3n(CC(=O)N4C[C@H](C)O[C@@H](C)C4)ccn3c(=O)c2O)s1", "note": "(stereo in doubt) [Example 58, 2-(2-{1-[2-(2,6-Dimethyl-morpholin-4-yl)-2-oxo-ethyl]-6-hydroxy-5-oxo-1,5-dihydro-imidazo[1,2-a]pyrimidin-7-yl}-thiazol-5-ylmethyl)-5-fluoro-benzoic acid methyl ester]", "values": [{"measurement": "EC50", "setting": "[1]", "result": "500 to 1000", "unit": "nM"}]}
{"compound": "C[C@H]1CN(C(=O)Cn2ccn3c(=O)c(O)c(-c4ncc(Cc5ccc(F)cc5S(=O)(=O)N(C)C)s4)nc23)C[C@H](C)O1", "note": "(stereo in doubt) [Example 104, 2-(2-{1-[2-(2,6-Dimethyl-morpholin-4-yl)-2-oxo-ethyl]-6-hydroxy-5-oxo-1,5-dihydro-imidazo[1,2-a]pyrimidin-7-yl}-thiazol-5-ylmethyl)-5-fluoro-N,N-dimethyl-benzenesulfonamide]", "values": [{"measurement": "EC50", "setting": "[1]", "result": "< 500", "unit": "nM"}]}
{"compound": "C[C@@H]1CN(C(=O)Cn2ccn3c(=O)c(O)c(-c4ncc(Cc5ccc(F)cc5S(C)(=O)=O)s4)nc23)C[C@@H](C)O1", "note": "(stereo in doubt) [Example 138, 1-[2-(2,6-Dimethyl-morpholin-4-yl)-2-oxo-ethyl]-7-[5-(4-fluoro-2-methanesulfonyl-benzyl)-thiazol-2-yl]-6-hydroxy-1H-imidazo[1,2-a]pyrimidin-5-one]", "values": [{"measurement": "EC50", "setting": "[1]", "result": "500 to 1000", "unit": "nM"}]}
{"compound": "C[C@@H]1C[C@@H](C)CN(C(=O)Cn2ccn3c(=O)c(O)c(-c4ncc(Cc5ccc(F)cc5)s4)nc23)C1", "note": "(stereo in doubt) [Example 180, 1-[2-(3,5-Dimethyl-piperidin-1-yl)-2-oxo-ethyl]-7-[5-(4-fluoro-benzyl)-thiazol-2-yl]-6-hydroxy-1H-imidazo[1,2-a]pyrimidin-5-one]", "values": [{"measurement": "EC50", "setting": "[1]", "result": "500 to 1000", "unit": "nM"}]}
{"compound": "C[C@H]1CN(C(=O)Cn2cc(N3CCCS3(=O)=O)n3c(=O)c(O)c(-c4ncc(Cc5ccc(F)cc5)s4)nc23)C[C@H](C)O1", "note": "[Example 75, 1-[2-(2,6-Dimethyl-morpholin-4-yl)-2-oxo-ethyl]-3-(1,1-dioxo-1l6-isothiazolidin-2-yl)-7-[5-(4-fluoro-benzyl)-thiazol-2-yl]-6-hydroxy-1H-imidazo[1,2-a]pyrimidin-5-one]", "values": [{"measurement": "EC50", "setting": "[1]", "result": "500 to 1000", "unit": "nM"}]}
{"compound": "CC1CCCCN1C(=O)Cn1ccn2c(=O)c(O)c(-c3ncc(Cc4ccc(F)cc4)s3)nc12", "note": "(stereo not shown) [Example 126, 7-(5-(4-fluorobenzyl)thiazol-2-yl)-6-hydroxy-1-(2-(2-methylpiperidin-1-yl)-2-oxoethyl)imidazo[1,2-a]pyrimidin-5(1H)-one]", "values": [{"measurement": "EC50", "setting": "[1]", "result": "500 to 1000", "unit": "nM"}]}
{"compound": "CC1CCN(C(=O)Cn2ccn3c(=O)c(O)c(-c4ncc(Cc5ccc(F)cc5)s4)nc23)CC1", "note": "[Example 157, 7-[5-(4-Fluoro-benzyl)-thiazol-2-yl]-6-hydroxy-1-[2-(4-methyl-piperidin-1-yl)-2-oxo-ethyl]-1H-imidazo[1,2-a]pyrimidin-5-one]", "values": [{"measurement": "EC50", "setting": "[1]", "result": "500 to 1000", "unit": "nM"}]}
{"compound": "O=C(NCc1ccc(Cl)c(Cl)c1)c1nc2n(CC(=O)N3CCCCC3)cc(CN3CCOCC3)n2c(=O)c1O", "note": "[Example 181, 6-Hydroxy-3-morpholin-4-ylmethyl-5-oxo-1-(2-oxo-2-piperidin-1-yl-ethyl)-1,5-dihydro-imidazo[1,2-a]pyrimidine-7-carboxylic acid 3,4-dichloro-benzylamide]", "values": [{"measurement": "EC50", "setting": "[1]", "result": "500 to 1000", "unit": "nM"}]}
{"compound": "C[C@H]1CN(C(=O)Cn2ccn3c(=O)c(O)c(-c4ncc(Cc5ccc(F)cc5)s4)nc23)C[C@H](C)O1", "note": "[Example 182, 1-[2-((2S,6S)-2,6-Dimethyl-morpholin-4-yl)-2-oxo-ethyl]-7-[5-(4-fluoro-benzyl)-thiazol-2-yl]-6-hydroxy-1H-imidazo[1,2-a]pyrimidin-5-one]", "values": [{"measurement": "EC50", "setting": "[1]", "result": "< 500", "unit": "nM"}]}
{"compound": "CN1CCC(n2ccn3c(=O)c(O)c(-c4ncc(Cc5ccc(F)cc5)s4)nc23)C1=O", "note": "(stereo not shown) [Example 183, 7-[5-(4-Fluoro-benzyl)-thiazol-2-yl]-6-hydroxy-1-(1-methyl-2-oxo-pyrrolidin-3-yl)-1H-imidazo[1,2-a]pyrimidin-5-one]", "values": [{"measurement": "EC50", "setting": "[1]", "result": "500 to 1000", "unit": "nM"}]}
{"compound": "CC1CN(C(=O)C(C)n2ccn3c(=O)c(O)c(-c4ncc(Cc5ccc(F)cc5)s4)nc23)CC(C)O1", "note": "(stereo not shown) [Example 184, 1-[2-(2,6-Dimethyl-morpholin-4-yl)-1-methyl-2-oxo-ethyl]-7-[5-(4-fluoro-benzyl)-thiazol-2-yl]-6-hydroxy-1H-imidazo[1,2-a]pyrimidin-5-one]", "values": [{"measurement": "EC50", "setting": "[1]", "result": "1000 to 10000", "unit": "nM"}]}
{"compound": "O=C(Cn1ccn2c(=O)c(O)c(-c3ncc(Cc4ccc(F)cc4)s3)nc12)N1CC2CCC1C2", "note": "(stereo not shown) [Example 185, 1-[2-(2-Aza-bicyclo[2.2.1]hept-2-yl)-2-oxo-ethyl]-7-[5-(4-fluoro-benzyl)-thiazol-2-yl]-6-hydroxy-1H-imidazo[1,2-a]pyrimidin-5-one]", "values": [{"measurement": "EC50", "setting": "[1]", "result": "1000 to 10000", "unit": "nM"}]}
{"compound": "C[C@@H]1CN(C(=O)Cn2cc(N3CCCS3(=O)=O)n3c(=O)c(O)c(C(=O)NCc4ccc(F)cc4S(=O)(=O)N(C)C)nc23)C[C@@H](C)O1", "note": "[Example 186, 1-[2-((2R,6R)-2,6-Dimethyl-morpholin-4-yl)-2-oxo-ethyl]-3-(1,1-dioxo-1lambda*6*-isothiazolidin-2-yl)-6-hydroxy-5-oxo-1,5-dihydro-imidazo[1,2-a]pyrimidine-7-carboxylic acid 2-dimethylsulfamoyl-4-fluoro-benzylamide]", "values": [{"measurement": "EC50", "setting": "[1]", "result": "< 500", "unit": "nM"}]}
{"compound": "CC1CC(C)CN(C(=O)Cn2cc(N3CCCS3(=O)=O)n3c(=O)c(O)c(C(=O)NCc4ccc(F)cc4S(=O)(=O)N(C)C)nc23)C1", "note": "(stereo not shown) [Example 187, 1-[2-(3,5-Dimethyl-piperidin-1-yl)-2-oxo-ethyl]-3-(1,1-dioxo-1lambda*6*-isothiazolidin-2-yl)-6-hydroxy-5-oxo-1,5-dihydro-imidazo[1,2-a]pyrimidine-7-carboxylic acid 2-dimethylsulfamoyl-4-fluoro-benzylamide]", "values": [{"measurement": "EC50", "setting": "[1]", "result": "< 500", "unit": "nM"}]}
{"compound": "CN(C)S(=O)(=O)c1cc(F)ccc1CNC(=O)c1nc2n(CC(=O)N3CCCCC3)cc(N3CCCS3(=O)=O)n2c(=O)c1O", "note": "[Example 188, 3-(1,1-Dioxo-1lambda*6*-isothiazolidin-2-yl)-6-hydroxy-5-oxo-1-(2-oxo-2-piperidin-1-yl-ethyl)-1,5-dihydro-imidazo[1,2-a]pyrimidine-7-carboxylic acid 2-dimethylsulfamoyl-4-fluoro-benzylamide]", "values": [{"measurement": "EC50", "setting": "[1]", "result": "< 500", "unit": "nM"}]}
{"compound": "CC1CCCCN1C(=O)Cn1cc(N2CCCS2(=O)=O)n2c(=O)c(O)c(C(=O)NCc3ccc(F)cc3S(=O)(=O)N(C)C)nc12", "note": "(stereo not shown) [Example 189, 3-(1,1-Dioxo-1lambda*6*-isothiazolidin-2-yl)-6-hydroxy-1-[2-(2-methyl-piperidin-1-yl)-2-oxo-ethyl]-5-oxo-1,5-dihydro-imidazo[1,2-a]pyrimidine-7-carboxylic acid 2-dimethylsulfamoyl-4-fluoro-benzylamide]", "values": [{"measurement": "EC50", "setting": "[1]", "result": "500 to 1000", "unit": "nM"}]}
{"compound": "CC1CC(C)CN(C(=O)Cn2cc(N3CCCS3(=O)=O)n3c(=O)c(O)c(C(=O)NCc4ccc(Cl)c(Cl)c4)nc23)C1", "note": "(stereo not shown) [Example 190, 1-[2-(3,5-Dimethyl-piperidin-1-yl)-2-oxo-ethyl]-3-(1,1-dioxo-1lambda*6*-isothiazolidin-2-yl)-6-hydroxy-5-oxo-1,5-dihydro-imidazo[1,2-a]pyrimidine-7-carboxylic acid 3,4-dichloro-benzylamide]", "values": [{"measurement": "EC50", "setting": "[1]", "result": "500 to 1000", "unit": "nM"}]}
{"compound": "CSCc1cn(CC(=O)N2CC(C)CC(C)C2)c2nc(C(=O)NCc3ccc(Cl)c(Cl)c3)c(O)c(=O)n12", "note": "(stereo not shown) [Example 191, 1-[2-(3,5-Dimethyl-piperidin-1-yl)-2-oxo-ethyl]-6-hydroxy-3-methylsulfanylmethyl-5-oxo-1,5-dihydro-imidazo[1,2-a]pyrimidine-7-carboxylic acid 3,4-dichloro-benzylamide]", "values": [{"measurement": "EC50", "setting": "[1]", "result": "1000 to 10000", "unit": "nM"}]}
{"compound": "CSCc1cn(CC(=O)N2CC(C)CC(C)C2)c2nc(C(=O)NCc3ccc(F)cc3S(=O)(=O)N(C)C)c(O)c(=O)n12", "note": "(stereo not shown) [Example 192, 1-[2-(3,5-Dimethyl-piperidin-1-yl)-2-oxo-ethyl]-6-hydroxy-3-methylsulfanylmethyl-5-oxo-1,5-dihydro-imidazo[1,2-a]pyrimidine-7-carboxylic acid 2-dimethylsulfamoyl-4-fluoro-benzylamide]", "values": [{"measurement": "EC50", "setting": "[1]", "result": "< 500", "unit": "nM"}]}
{"compound": "CC1CC(C)CN(C(=O)Cn2cc(CS(C)(=O)=O)n3c(=O)c(O)c(C(=O)NCc4ccc(Cl)c(Cl)c4)nc23)C1", "note": "(stereo not shown) [Example 193, 1-[2-(3,5-Dimethyl-piperidin-1-yl)-2-oxo-ethyl]-6-hydroxy-3-methanesulfonylmethyl-5-oxo-1,5-dihydro-imidazo[1,2-a]pyrimidine-7-carboxylic acid 3,4-dichloro-benzylamide]", "values": [{"measurement": "EC50", "setting": "[1]", "result": "< 500", "unit": "nM"}]}
{"compound": "CC1CC(C)CN(C(=O)Cn2cc(CS(C)(=O)=O)n3c(=O)c(O)c(C(=O)NCc4ccc(F)cc4S(=O)(=O)N(C)C)nc23)C1", "note": "(stereo not shown) [Example 194, 1-[2-(3,5-Dimethyl-piperidin-1-yl)-2-oxo-ethyl]-6-hydroxy-3-methanesulfonylmethyl-5-oxo-1,5-dihydro-imidazo[1,2-a]pyrimidine-7-carboxylic acid 2-dimethylsulfamoyl-4-fluoro-benzylamide]", "values": [{"measurement": "EC50", "setting": "[1]", "result": "< 500", "unit": "nM"}]}
